Assay results published in patent US11950592B2, “Method for enhancing plant disease controlling effects of aryl phenyl ketone fungicide, and method for controlling plant diseases” (ISHIHARA SANGYO KAISHA, LTD., priority 2016, dated 2024).

Legend:
Type in all cases: in vivo
Sphaerotheca fuliginea [1] = assay: Test Example 5: curative effect against cucumber powdery mildew; conditions: no addition
Description: (§1) Cucumber (cultivar: Sagamihanjiro Fushinari) was cultivated in a polyethylene pot having a diameter of 7.5 cm, and when the cucumber reached 1.5 leaf stage, the leaf adaxial surface was sprayed and inoculated with a suspension of conidia of Sphaerotheca fuliginea, the cucumber was cultivated in a room at 20° C. under the light for 3 days, and a chemical solution containing pyriofenone (dosage: 90 g ai/ha) or metrafenone (300 g ai/ha) prepared with an aqueous solution containing each product (0.025 to 4.0 v/v°/0) was applied (amount of solution applied: 800 L/ha) to the leaf adaxial surface by a spray gun. After the chemical solution dried, the cucumber was cultivated in a room at 20° C. under the light for 7 days. The lesion area ratio on the first leaf was examined, and the control value was calculated based on the following formula. Control value=(1−a/b)×100
(§2) a: lesion area ratio in treated plot, b: lesion area ratio in non-treated plot

Sphaerotheca fuliginea [2] = assay: Test Example 6: curative effect against cucumber powdery mildew; conditions: no addition
Description: as §1, with “product (0.01” for “product (0.025”, “to 5.0” for “to 4.0”, “for 6” for “for 7”
as §2

Sphaerotheca fuliginea [3] = assay: Test Example 7: curative effect against cucumber powdery mildew; conditions: no addition
Description: as §1, with “product (0.02” for “product (0.025”, “to 0.07” for “to 4.0”, “for 5” for “for 7”
as §2

Sphaerotheca fuliginea [4] = assay: Test Example 8: curative effect against cucumber powdery mildew; conditions: no addition
Description: as §1, with “(0.001” for “(0.025”, “5.0” for “4.0”
as §2

Sphaerotheca fuliginea [5] = assay: Test Example 9: curative effect against cucumber powdery mildew; conditions: no addition
Description: as §1, with “(0.005” for “(0.025”, “1.0” for “4.0”
as §2

Sphaerotheca fuliginea [6] = assay: Test Example 1: curative effect against cucumber powdery mildew with different temperatures; conditions: pyriofenone 90 g ai/ha, no component (b)
Description: (§3) Cucumber (cultivar: Sagamihanjiro Fushinari) was cultivated in a polyethylene pot having a diameter of 7.5 cm, and when the cucumber reached 1.5 leaf stage, the leaf adaxial surface was sprayed and inoculated with a suspension of conidia of Sphaerotheca fuliginea, the cucumber was cultivated in a room at 20° C. or 28° C. under the light for 3 days, and a chemical solution containing pyriofenone was applied (dosage: 90 g ai/ha, amount of solution applied: 800 L/ha) to the leaf adaxial surface by a spray gun. After the chemical solution dried, the cucumber was cultivated in a room at 20° C. or 28° C. under the light for 6 days. The lesion area ratio on the adaxial surface of the first leaf was examined, and the control value was calculated based on the following formula. Control value=(1−a/b)×100
as §2

Sphaerotheca fuliginea [7] = assay: Test Example 2: curative effect against cucumber powdery mildew; conditions: pyriofenone 90 g ai/ha, no addition
Description: Cucumber (cultivar: Sagamihanjiro Fushinari) was cultivated in a polyethylene pot having a diameter of 7.5 cm, and when the cucumber reached 1.5 leaf stage, the leaf adaxial surface was sprayed and inoculated with a suspension of conidia of Sphaerotheca fuliginea, the cucumber was cultivated in a room at 20° C. under the light for 3 days, and a chemical solution containing pyriofenone prepared with an aqueous solution containing each product (0.5 v/v°/0) was applied (dosage: 90 g ai/ha, amount of solution applied: 800 L/ha) to the leaf adaxial surface by a spray gun. After the chemical solution dried, the cucumber was cultivated in a room at 20° C. under the light for 6 days. The lesion area ratio on the adaxial surface of the first leaf was examined, and the control value was calculated based on the following formula. In Tables, “no addition” means the above treatment without adding the component (b) (the same applies hereinafter). Control value=(1−a/b)×100
as §2

Sphaerotheca fuliginea [8] = assay: Test Example 3: curative effect against cucumber powdery mildew; conditions: pyriofenone 90 g ai/ha, no addition
Description: as §3, with “C.” for “C. or 28° C.”, “pyriofenone prepared with an aqueous solution containing each product (0.05 to 0.25 v/v°/0)” for “pyriofenone”, “on” for “on the adaxial surface of”
as §2

Sphaerotheca fuliginea [9] = assay: Test Example 4: curative effect against cucumber powdery mildew; conditions: pyriofenone 90 g ai/ha, no addition
Description: Cucumber (cultivar: Sagamihanjiro Fushinari) was cultivated in a polyethylene pot having a diameter of 7.5 cm, and when the cucumber reached 1.5 leaf stage, the leaf adaxial surface was sprayed and inoculated with a suspension of conidia of Sphaerotheca fuliginea, the cucumber was cultivated in a room at 20° C. under the light to for 3 days, and a chemical solution containing pyriofenone prepared with an aqueous solution containing each product (0.025 to 0.25 v/v°/0) was applied (dosage: 90 g ai/ha, amount of solution applied: 800 L/ha) to the leaf adaxial surface by a spray gun. After the chemical solution dried, the cucumber was cultivated in a greenhouse for 4 days and then cultivated in a room at 20° C. under the light for 5 days. The lesion area ratio on the first leaf was examined, and the control value was calculated based on the following formula. Control value=(1−a/b)×100
as §2

Sphaerotheca fuliginea [10] = assay: Test Example 10: penetration effect against cucumber powdery mildew; conditions: pyriofenone 90 g ai/ha, no addition
Description: (§4) Cucumber (cultivar: Sagamihanjiro Fushinari) was cultivated in a polyethylene pot having a diameter of 7.5 cm, and when the cucumber reached 1.5 leaf stage, a chemical solution containing pyriofenone (dosage: 90 g ai/ha) prepared with an aqueous solution containing each product (0.015 to 4.0 v/v %) was applied (amount of solution applied: 800 L/ha) to the leaf adaxial surface by a spray gun. After the chemical solution dried, the cucumber was cultivated in a room at 20° C. under the light for 4 days, the leaf abaxial surface was sprayed and inoculated with a suspension of conidia of Sphaerotheca fuliginea, and the cucumber was cultivated in a room at 20° C. under the light for 8 days. The lesion area ratio on the abaxial side of the first leaf was examined, and the control value was calculated based on the following formula. Control value=(1−a/b)×100
as §2

Oidiopsis sicula Scalia = assay: Test Example 11: curative effect against sweet pepper powdery mildew; conditions: no addition
Text: Sweet pepper (cultivar: Kyonami) was cultivated in a polyethylene pot having a diameter of 7.5 cm, and when the sweet pepper reached 8.5 leaf stage, the sweet pepper was dusted and inoculated with a suspension of conidia of Oidiopsis sicula Scalia, the sweet pepper was cultivated in a greenhouse under the light for 3 days, and a chemical solution containing pyriofenone (dosage: 90 g or 110 g ai/ha) prepared with an aqueous solution containing each product (0.07 to 4.0 v/v %) was applied (amount of solution applied: 600 L/ha) to the leaf adaxial surface by a spray gun. After the chemical solution dried, the cucumber was cultivated in a greenhouse under the light for 17 days. Each of eight lower leaves was investigated, and the disease severity was calculated in accordance with the following index. Further, the control value was calculated from the disease severity.
Disease index 0: No spore formation
Disease index 1: Formation of lesion (spores, foot cells, conidiogenous cells) is observed on the leaf abaxial side with an area of less than 10%.
Disease index 2: Formation of lesion (spores, foot cells, conidiogenous cells) is observed on the leaf abaxial side with an area of from 10% to 25%.
Disease index 3: Formation of lesion (spores, foot cells, conidiogenous cells) is observed on the leaf abaxial side with an area of from 26% to 50%. […]

Sphaerotheca fuliginea [11] = assay: Test Example 12: curative effect against cucumber powdery mildew; conditions: pyriofenone 90 g ai/ha, no addition
Description: as §4, with “stage, the leaf adaxial surface was sprayed and inoculated with a suspension of conidia of Sphaerotheca fuliginea, the cucumber was cultivated in a room at 20° C. under the light for 4 days, and” for “stage,”, “0.5” for “4.0”, “6” for “4 days, the leaf abaxial surface was sprayed and inoculated with a suspension of conidia of Sphaerotheca fuliginea, and the cucumber was cultivated in a room at 20° C. under the light for 8”, “on” for “on the abaxial side of”
as §2

Sphaerotheca fuliginea [12] = assay: Test Example 13: penetration effect against cucumber powdery mildew; conditions: pyriofenone 90 g ai/ha, no addition
Description: Cucumber (cultivar: Sagamihanjiro Fushinari) was cultivated in a polyethylene pot having a diameter of 7.5 cm, and when the cucumber reached 1.5 leaf stage, a chemical solution containing pyriofenone (dosage: 90 g ai/ha) prepared with an aqueous solution containing each product (0.015 to 1.0 v/v°/0) was applied (amount of solution applied: 800 L/ha) to the leaf adaxial surface by a spray gun. After the chemical solution dried, the cucumber was cultivated in a room at 20° C. under the light for 3 days, the leaf abaxial surface was sprayed and inoculated with a suspension of conidia of Sphaerotheca fuliginea, and the cucumber was cultivated in a room at 20° C. under the light for 7 days. The lesion area ratio on the abaxial side of the first leaf was examined, and the control value was calculated based on the following formula. Control value=(1−a/b)×100
as §2

SMILES	Control value Metrafenone (Sphaerotheca fuliginea [1]; metrafenone 300 g ai/ha)	Control value Metrafenone (Sphaerotheca fuliginea [2]; metrafenone 300 g ai/ha)	Control value Metrafenone (Sphaerotheca fuliginea [3]; metrafenone 300 g ai/ha)	Control value Metrafenone (Sphaerotheca fuliginea [4]; metrafenone 300 g ai/ha)	Control value Metrafenone (Sphaerotheca fuliginea [5]; metrafenone 300 g ai/ha)	Control value (Sphaerotheca fuliginea [6]; 20° C.)	Control value (Sphaerotheca fuliginea [6]; 28° C.)	Control value (Sphaerotheca fuliginea [7])	Control value (Sphaerotheca fuliginea [8])	Control value (Sphaerotheca fuliginea [9])	Control value Pyriofenone (Sphaerotheca fuliginea [1]; pyriofenone 90 g ai/ha)	Control value Pyriofenone (Sphaerotheca fuliginea [2]; pyriofenone 90 g ai/ha)	Control value Pyriofenone (Sphaerotheca fuliginea [3]; pyriofenone 90 g ai/ha)	Control value Pyriofenone (Sphaerotheca fuliginea [4]; pyriofenone 90 g ai/ha)	Control value Pyriofenone (Sphaerotheca fuliginea [5]; pyriofenone 90 g ai/ha)	Control value (Sphaerotheca fuliginea [10])	Control value Dosage (g ai/ha) 90 (Oidiopsis sicula Scalia; pyriofenone 90 g ai/ha)	Control value Dosage (g ai/ha) 110 (Oidiopsis sicula Scalia; pyriofenone 110 g ai/ha)	Control value (Sphaerotheca fuliginea [11])	Control value (Sphaerotheca fuliginea [12])
COc1cc(C)c(C(=O)c2c(OC)ccc(Br)c2C)c(OC)c1OC [Metrafenone, metrafenone]	65.7	60.2	65	60	75	–	–	–	–	–	–	–	–	–	–	–	–	–	–	–
COc1cc(C)c(C(=O)c2c(OC)ncc(Cl)c2C)c(OC)c1OC [Pyriofenone, pyriofenone]	–	–	–	–	–	53	80	55	55	30	63	71.6	65	65	70	12	7.6	6.1	68	40
